Data taken from patent publication US5227487A, “Certain tricyclic and pentacyclic-hetero nitrogen rhodol dyes” (Molecular Probes, Inc., priority 1990, dated 1993).
“And” between values parts separate entries of the source, which are not always exact repeats. Equal values may be shown once.

How the values were obtained:
[1] = Photobleaching / photostability relative to fluorescein; type: physicochemical; details: continuous illumination; equimolar solutions; 50 mM potassium phosphate pH 8.0 (FIG. 3)
Method: (§1) An estimate of the quantum yield of the dyes relative to fluorescein (quantum yield=0.92 in 0.01M sodium hydroxide) was obtained by integrating the emission spectrum of the dye excited at the same wavelength and optical density as the standard. Approximate photostabilities of the rhodol derivatives, relative to fluorescein, were determined by measuring the time dependent decrease in fluorescence intensity, during continuous illumination, of equimolar solutions of the rhodol dyes and fluorescein.

[2] = Quantum yield relative to fluorescein; type: physicochemical; details: aqueous 50 mM phosphate buffer at pH 8.0-9.0; uncorrected
Method: as §1

[3] = pKa / pH dependence of absorption and emission; type: physicochemical
Method: | ^c In aqueous 50 mM phosphate buffer

[4] = Fluorescence emission spectra of rhodol dyes (uncorrected); type: physicochemical
Method: Uncorrected fluorescence data was obtained on a Perkin-Elmer Model 650-40 Fluorescence Spectrophotometer equipped with a Perkin-Elmer/Hitachi 057 X-Y recorder using a ten- to twentyfold dilution of the absorbance solutions. Fluorescence of the rhodol dyes was determined for the reactive dyes and for their conjugates with model compounds by dissolving the dye at a concentration above 1×10^-8 M in an appropriate solvent such as water, methanol or chloroform, followed by measurement of the fluorescence in a suitable instrument, such as a fluorescence spectrometer or fluorescence microscope.

[5] = Absorption spectra and extinction coefficients of rhodol dyes; type: physicochemical; details: aqueous 50 mM phosphate buffer at pH 8.0-9.0
Method: Stock solutions were prepared by accurately weighting and dissolving 5-10 mg samples of the compounds in 50 mM potassium phosphate buffer at pH 8.0. Absorbance solutions were prepared by further diluting the stock solution with 50 mM potassium phosphate buffer at pH 8.0.

[6] = as above; type: physicochemical; details: in methanol
[7] = background, cited from earlier work
[8] = cited from earlier work
[9] = background; cited from earlier work
[10] = background; cited from earlier work; remark: listed apart in the source
[11] = aqueous 50 mM phosphate buffer at pH 8.0-9.0

Compound	QY (quantum yield) [2]	Em Max [4, 11]	Abs Max [5]	ε (extinction coefficient) [5]	Abs Max [6]	Em Max ([4]; in methanol)	also measured
5(and -6)-carboxy-3'-hydroxy-6'-amino-spiro[isobenzofuran-1(3H,9'-[9H]xanthen-3- one [Compound 1]	0.81	517 nm	492 nm	59900 M⁻¹ cm⁻¹			photostability / rate of photobleaching relative to fluorescein [1]: superior photostability; pKa ([3]; aqueous 50 mM phosphate buffer): 5.59; pH dependence of absorption and emission ([3]; aqueous solution, between pH 6 and 10, compared with fluorescein (FIG. 4)): less significant pH dependence
5-(and -6)-carboxy-2',7'-dimethyl-3'-hydroxy-6'-N-ethylamino-spiro[isobenzofuran- 1(3H),9'-[9H]xanthen-3-one [Compound 12]	0.81	535 nm	510 nm	54800 M⁻¹ cm⁻¹			pKa ([3]; aqueous 50 mM phosphate buffer): 5.82
CCNc1cc2oc3cc(=O)c(CCC(=O)O)cc-3c(-c3ccccc3C(=O)O)c2cc1C [Compound 17]	0.65	534 nm	510 nm	79400 M⁻¹ cm⁻¹			pKa ([3]; 50 mm phosphate buffer): 5.91
O=C(O)c1ccc(C(=O)O)c(-c2c3cc(Cl)c(=O)cc-3oc3cc4c(cc23)CCCN4)c1 [Compound 24, 5-(and-6)-carboxy-2'-chloro-3'-hydroxy-1,2,3,4tetrahydropyridino[5,6-i]-spiro[isobenzofuran-1(3H),9'-[9H]xanthen-3-one]	0.37	546 nm	524 nm				pKa ([3]; 50 mm phosphate buffer): 4.50
O=C(O)c1ccc(C(=O)O)c(-c2c3cc(Cl)c(=O)cc-3oc3c4c5c(cc23)CCCN5CCC4)c1 [Compound 28]	0.31	572 nm	547 nm	74500 M⁻¹ cm⁻¹			pKa ([3]; 50 mm phosphate buffer): 5.11
NCCCCCNC(=O)c1ccc(C(=O)O)c(-c2c3cc(Cl)c(=O)cc-3oc3c4c5c(cc23)CCCN5CCC4)c1 [Compound 30]				57300 M⁻¹ cm⁻¹	541 nm	567 nm	
NCCNC(=O)c1ccc(C(=O)O)c(-c2c3cc(Cl)c(=O)cc-3oc3c4c5c(cc23)CCCN5CCC4)c1 [Compound 31]					540 nm	568 nm	
CCCCCCCCCCCCCCCCc1cc2c(-c3cc(C(=O)O)ccc3C(=O)O)c3cc4c5c(c3oc-2cc1=O)CCCN5CCC4 [Compound 34]		572 nm	547 nm		531 nm	562 nm	ε (extinction coefficient) [6]: 84400 M⁻¹ cm⁻¹
O=C(O)CCc1cc2c(cc1O)Oc1c(cc3c4c1CCCN4CCC3)C21OC(=O)c2ccccc21 (stereo not drawn) [Compound 39, 3'-hydroxy-2,3,6,7-tetrahydro-1H, 5H-quinolizino[1,9-hi]-spiro[isobenzofuran-1(3H),9'-[9H]xanthen-3-one-2'-(3-propionic acid)]	0.41	562 nm	541 nm	58200 M⁻¹ cm⁻¹			pKa ([3]; 50 mm phosphate buffer): 6.63
C=CC(=O)NCCCCCNC(=O)CCc1cc2c(-c3ccccc3C(=O)O)c3cc4c5c(c3oc-2cc1=O)CCCN5CCC4 [Compound 42]		571 nm	544 nm				
[N-]=[N+]=Nc1ccc(C(=O)NCCCCCNC(=O)CCc2cc3c(cc2O)Oc2c(cc4c5c2CCCN5CCC4)C32OC(=O)c3ccccc32)cc1 (stereo not drawn) [Compound 43]		572 nm	545 nm				
O=C(CI)NCCCCCNC(=O)CCc1cc2c(-c3ccccc3C(=O)O)c3cc4c5c(c3oc-2cc1=O)CCCN5CCC4 [Compound 44]		572 nm	544 nm				
O=C(CCc1cc2c(-c3ccccc3C(=O)O)c3cc4c5c(c3oc-2cc1=O)CCCN5CCC4)NCCCCCNC(=O)CN1C(=O)C=CC1=O [Compound 45]		573 nm	544 nm				
NNC(=O)CCc1cc2c(-c3ccccc3C(=O)O)c3cc4c5c(c3oc-2cc1=O)CCCN5CCC4 [Compound 49]		573 nm	542 nm				
NCCCCCNC(=O)CCc1cc2c(cc1O)Oc1c(cc3c4c1CCCN4CCC3)C21OC(=O)c2ccccc21 (stereo not drawn) [Compound 50]		572 nm	543 nm				
O=c1cc2oc3c4c5c(cc3c(CCl)c-2cc1Cl)CCCN5CCC4 [Compound 51]					563 nm	578 nm	
CCc1cc2c(C(=O)O)c3cc4c5c(c3oc-2cc1=O)CCCN5CCC4 [Compound 52]		603 nm	558 nm				
O=C(O)CCc1cc2cc3cc4c5c(c3oc-2cc1=O)CCCN5CCC4 [Compound 54]	0.44	562 nm	538 nm	69500 M⁻¹ cm⁻¹	531 nm	555 nm	ε (extinction coefficient) [6]: 81400 M⁻¹ cm⁻¹
O=C(O)CCCCc1cc2cc3cc4c5c(c3oc-2cc1=O)CCCN5CCC4 [Compound 55]		562 nm	538 nm	64100 M⁻¹ cm⁻¹	532 nm	556 nm	ε (extinction coefficient) [6]: 88700 M⁻¹ cm⁻¹
O=C(O)CCCCCCCCCCCc1cc2cc3cc4c5c(c3oc-2cc1=O)CCCN5CCC4 [Compound 56]					532 nm	556 nm	ε (extinction coefficient) [6]: 84400 M⁻¹ cm⁻¹
O=C(O)CCc1cc2c(C(F)(F)F)c3cc4c5c(c3oc-2cc1=O)CCCN5CCC4 [Compound 57]		635 nm	602 nm		593 nm	633 nm	
N#Cc1c2cc(CCC(=O)O)c(=O)cc-2oc2c3c4c(cc12)CCCN4CCC3 [Compound 58]		664 nm	640 nm				
O=C1OC2(c3ccc(O)cc3Oc3cc(O)ccc32)c2ccccc21 [Fluorescein]	0.92	514 nm	490 nm	75000 M⁻¹ cm⁻¹			absorption intensity at 514 nm relative to maximum at 492 nm ([7]; 514 nm): less than 10%; absorptivity at peak ([7]; at absorption peak): 75,000 cm^-1 M^-1; absorption maximum [7]: 492 nm and ~490 nm; quantum yield of the standard ([8]; in 0.01M sodium hydroxide): 0.92; pH sensitivity [9]: pH dependent absorption spectrum; pKa ([3]; aqueous 50 mM phosphate buffer): 6.4
CN(C)c1ccc2c(-c3ccccc3C(=O)[O-])c3ccc(N(C)C)cc3[o+]c2c1 [Tetramethylrhodamine]							quantum yield in alcohol ([8]; background, in alcohol): above 0.90; quantum yield in water ([8]; background, in water): approximately 0.23; photostability [10]: relatively photostable; pH sensitivity [9]: pH insensitive
Carboxyfluorescein [reference compound]	0.78	514 nm	491 nm	75000 M⁻¹ cm⁻¹			pKa ([3]; 50 mm phosphate buffer): 6.4
Carboxytetramethylrhodamine [reference compound]	0.23	574 nm	547 nm	77000 M⁻¹ cm⁻¹			
